From patent publication US7063946B2, “Methods, reagents, kits and apparatus for protein function analysis” (Meso Scale Technologies, LLC., priority 2001, dated 2006)

Assays:
Test in all cases: Kinase inhibitor profiling, autophosphorylation
Type in all cases: biochemical
[1] = molecular target: T1, FGFR2 (Mus musculus, UniProt P21803)
T1 construct: specificity data for proteins generated from a library of eighteen full-length clones; host or cells: rabbit reticulocyte lysate, TnT coupled in vitro transcription/translation (cell-free)

[2] = molecular target: T2, PTK2B (Homo sapiens, UniProt Q14289)
T2 construct: specificity data for proteins generated from a library of eighteen full-length clones; host or cells: rabbit reticulocyte lysate, TnT coupled in vitro transcription/translation (cell-free)

[3] = molecular target: T3, Kit (Mus musculus, UniProt P05532)
T3 construct: specificity data for proteins generated from a library of eighteen full-length clones; biotin on random lysines (biotin-Lys-tRNA); host or cells: rabbit reticulocyte lysate, coupled transcription/translation (TnT, Promega)

[4] = molecular target: T4, BMX (Homo sapiens, UniProt P51813)
T4 construct: specificity data for proteins generated from a library of eighteen full-length clones; host or cells: rabbit reticulocyte lysate, TnT coupled in vitro transcription/translation (cell-free)
T4 sequence (P51813 1-675): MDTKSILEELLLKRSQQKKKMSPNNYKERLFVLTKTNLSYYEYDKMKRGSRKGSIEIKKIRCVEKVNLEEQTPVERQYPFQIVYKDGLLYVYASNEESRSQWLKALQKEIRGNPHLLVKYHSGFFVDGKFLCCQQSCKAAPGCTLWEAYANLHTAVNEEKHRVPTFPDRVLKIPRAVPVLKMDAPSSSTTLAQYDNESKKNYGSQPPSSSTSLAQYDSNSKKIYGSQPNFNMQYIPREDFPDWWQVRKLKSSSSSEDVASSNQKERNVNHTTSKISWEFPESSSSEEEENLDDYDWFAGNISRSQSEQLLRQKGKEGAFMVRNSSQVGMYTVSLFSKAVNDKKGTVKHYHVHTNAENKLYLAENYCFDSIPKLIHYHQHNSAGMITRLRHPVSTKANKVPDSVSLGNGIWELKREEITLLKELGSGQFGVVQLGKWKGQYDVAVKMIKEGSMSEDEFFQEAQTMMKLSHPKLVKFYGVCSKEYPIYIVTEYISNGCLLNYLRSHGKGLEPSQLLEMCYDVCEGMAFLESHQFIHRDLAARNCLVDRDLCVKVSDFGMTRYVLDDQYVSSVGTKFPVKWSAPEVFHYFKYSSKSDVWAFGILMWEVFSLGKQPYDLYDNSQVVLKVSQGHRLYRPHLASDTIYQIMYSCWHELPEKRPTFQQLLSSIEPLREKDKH

T3 sequence (P05532 25-979): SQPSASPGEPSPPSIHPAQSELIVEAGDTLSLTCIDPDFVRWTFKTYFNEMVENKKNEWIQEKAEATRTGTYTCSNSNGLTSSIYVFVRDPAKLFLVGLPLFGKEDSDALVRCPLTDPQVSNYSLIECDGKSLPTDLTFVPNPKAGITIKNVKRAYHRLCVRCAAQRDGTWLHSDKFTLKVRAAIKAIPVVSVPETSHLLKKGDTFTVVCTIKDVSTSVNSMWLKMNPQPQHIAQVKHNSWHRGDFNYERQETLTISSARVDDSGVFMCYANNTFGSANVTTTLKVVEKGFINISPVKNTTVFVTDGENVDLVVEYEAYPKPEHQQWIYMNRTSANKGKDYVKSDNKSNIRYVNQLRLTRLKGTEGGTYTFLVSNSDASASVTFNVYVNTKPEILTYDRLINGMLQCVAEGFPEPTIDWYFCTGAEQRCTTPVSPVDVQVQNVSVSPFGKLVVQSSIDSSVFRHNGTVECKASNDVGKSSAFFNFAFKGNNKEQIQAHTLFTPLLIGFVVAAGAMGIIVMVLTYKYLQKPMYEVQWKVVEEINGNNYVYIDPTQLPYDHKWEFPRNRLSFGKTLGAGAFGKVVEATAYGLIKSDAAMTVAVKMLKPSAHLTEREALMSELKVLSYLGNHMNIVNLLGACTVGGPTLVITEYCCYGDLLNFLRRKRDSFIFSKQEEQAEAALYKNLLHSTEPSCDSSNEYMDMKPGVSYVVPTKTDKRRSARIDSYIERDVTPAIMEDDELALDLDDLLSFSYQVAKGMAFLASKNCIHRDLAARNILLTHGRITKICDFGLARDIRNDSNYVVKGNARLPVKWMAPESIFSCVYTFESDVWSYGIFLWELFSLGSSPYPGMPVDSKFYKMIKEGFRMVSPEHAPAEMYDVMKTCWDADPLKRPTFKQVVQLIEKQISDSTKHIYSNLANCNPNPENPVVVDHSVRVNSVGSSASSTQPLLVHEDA
T1 sequence (P21803 22-821): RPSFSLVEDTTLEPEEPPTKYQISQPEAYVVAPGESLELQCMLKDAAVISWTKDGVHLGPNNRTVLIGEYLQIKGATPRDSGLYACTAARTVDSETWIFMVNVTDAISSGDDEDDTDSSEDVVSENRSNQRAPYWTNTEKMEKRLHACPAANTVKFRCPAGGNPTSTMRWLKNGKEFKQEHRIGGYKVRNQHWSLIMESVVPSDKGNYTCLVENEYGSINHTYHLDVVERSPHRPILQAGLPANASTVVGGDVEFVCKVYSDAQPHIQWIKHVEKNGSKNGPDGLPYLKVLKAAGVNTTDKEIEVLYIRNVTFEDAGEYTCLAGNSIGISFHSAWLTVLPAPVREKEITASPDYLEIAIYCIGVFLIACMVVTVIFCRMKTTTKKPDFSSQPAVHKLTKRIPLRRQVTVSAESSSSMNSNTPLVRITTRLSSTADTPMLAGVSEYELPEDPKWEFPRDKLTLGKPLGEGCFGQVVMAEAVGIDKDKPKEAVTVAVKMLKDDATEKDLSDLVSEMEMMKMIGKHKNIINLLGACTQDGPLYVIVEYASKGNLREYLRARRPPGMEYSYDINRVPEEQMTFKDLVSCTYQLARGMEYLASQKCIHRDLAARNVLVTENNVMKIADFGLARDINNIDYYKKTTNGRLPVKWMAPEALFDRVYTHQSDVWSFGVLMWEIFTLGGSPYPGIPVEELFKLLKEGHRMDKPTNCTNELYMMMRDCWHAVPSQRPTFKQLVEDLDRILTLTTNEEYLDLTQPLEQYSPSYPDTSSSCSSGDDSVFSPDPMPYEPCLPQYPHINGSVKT
T2 sequence (Q14289 whole entry): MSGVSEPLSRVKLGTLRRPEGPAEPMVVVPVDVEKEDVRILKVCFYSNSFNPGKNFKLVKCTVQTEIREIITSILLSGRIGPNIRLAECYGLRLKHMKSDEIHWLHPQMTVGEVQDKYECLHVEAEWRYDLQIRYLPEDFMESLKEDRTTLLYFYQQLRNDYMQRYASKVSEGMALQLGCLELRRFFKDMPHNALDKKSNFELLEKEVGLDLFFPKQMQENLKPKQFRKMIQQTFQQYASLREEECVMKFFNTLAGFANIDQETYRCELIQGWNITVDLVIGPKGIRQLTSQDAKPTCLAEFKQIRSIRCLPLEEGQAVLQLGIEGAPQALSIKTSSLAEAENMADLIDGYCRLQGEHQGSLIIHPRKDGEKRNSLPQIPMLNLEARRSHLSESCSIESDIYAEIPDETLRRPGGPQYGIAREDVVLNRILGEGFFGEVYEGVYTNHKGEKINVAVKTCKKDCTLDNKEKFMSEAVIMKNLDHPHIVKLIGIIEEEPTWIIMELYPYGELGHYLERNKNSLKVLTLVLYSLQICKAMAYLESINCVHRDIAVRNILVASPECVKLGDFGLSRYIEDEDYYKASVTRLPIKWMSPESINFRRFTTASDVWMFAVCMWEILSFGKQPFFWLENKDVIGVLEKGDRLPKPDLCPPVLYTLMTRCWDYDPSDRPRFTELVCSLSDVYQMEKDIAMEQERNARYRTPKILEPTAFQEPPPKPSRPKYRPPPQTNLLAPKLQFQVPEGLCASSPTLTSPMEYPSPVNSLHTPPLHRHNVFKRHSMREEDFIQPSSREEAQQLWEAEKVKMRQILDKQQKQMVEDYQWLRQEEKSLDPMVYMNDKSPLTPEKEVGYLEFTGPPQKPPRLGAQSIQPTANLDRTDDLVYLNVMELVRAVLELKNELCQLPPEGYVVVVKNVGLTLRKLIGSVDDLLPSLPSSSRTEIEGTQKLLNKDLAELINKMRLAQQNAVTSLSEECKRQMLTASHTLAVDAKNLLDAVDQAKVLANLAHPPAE

Row | Compound | Inhibition specificity towards Autophosphorylation at 10X IC50, FGFR2 [1] | Inhibition specificity towards Autophosphorylation at 10X IC50, PTK2B [2] | Inhibition specificity towards Autophosphorylation at 10X IC50, Kit [3] | Inhibition specificity towards Autophosphorylation at 10X IC50, BMX [4]
1 | COC(=O)c1ccc(NCc2cc(O)ccc2O)cc1 [AG-957] | L (low inhibition (“L”=between 50–75% of the activity remaining)) | L (low inhibition (“L”=between 50–75% of the activity remaining)) | L (low inhibition (“L”=between 50–75% of the activity remaining)) | L (low inhibition (“L”=between 50–75% of the activity remaining))
2 | COc1cc2ncnc(Nc3ccc(O)cc3)c2cc1OC [WHI-P131] | – | – | L (low inhibition (“L”=between 50–75% of the activity remaining)) | –
3 | Cc1cc2ncc(-c3ccc(O)c(O)c3)nc2cc1C [AG-1433] | H (high inhibition (“H”=less than 25% of the activity remaining)) | H (high inhibition (“H”=less than 25% of the activity remaining)) | H (high inhibition (“H”=less than 25% of the activity remaining)) | H (high inhibition (“H”=less than 25% of the activity remaining))
4 | Erbstatin analog | L (low inhibition (“L”=between 50–75% of the activity remaining)) | L (low inhibition (“L”=between 50–75% of the activity remaining)) | L (low inhibition (“L”=between 50–75% of the activity remaining)) | L (low inhibition (“L”=between 50–75% of the activity remaining))
5 | COc1c(C=O)c(O)cc2c1C(=O)c1ccccc1C2=O [Damnacanthal] | M (medium inhibition (“M”=between 25 to 50% of the activity remaining)) | M (medium inhibition (“M”=between 25 to 50% of the activity remaining)) | H (high inhibition (“H”=less than 25% of the activity remaining)) | H (high inhibition (“H”=less than 25% of the activity remaining))
6 | CC(C)(C)c1cc(C=C(C#N)C#N)cc(Br)c1O [AG-1024] | L (low inhibition (“L”=between 50–75% of the activity remaining)) | – | – | –
